From US10562912B2 (C&C Research Laboratories, priority 2013, dated 2020)

Assays:
Type in all cases: cell-based
DU-145 = test: Cell growth inhibition assay, prostate cancer cell line DU-145; details: Homo sapiens, DU-145 prostate cancer cell line
Method in brief: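 Readout was CellTiter-Glo luminescence after 72–96 h of compound exposure at 37 °C, 5% CO2. Plating density was 3,000 cells/well for DU-145 and HCT116 and 5,000 cells/well for SW626. Controls were 0.1% DMSO wells and medium-only wells.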

LNCaP = test: Cell growth inhibition assay, prostate cancer cell line LNCaP (medium with 10 ng/mL IL-6); details: Homo sapiens, medium supplemented with 10 ng/mL of IL-6, 10,000 cells/well
STAT3 = molecular target: T1, STAT3 (Homo sapiens, UniProt P40763); test: STAT3 reporter gene assay (luciferase), LNCaP stable cell line (pSTAT3-TA-luc), IL-6 stimulation
T1 construct: plasmid pSTAT3-TA-luc), which contains a stably operating STAT3 promoter; endogenous in cells
T1 sequence (P40763 whole entry): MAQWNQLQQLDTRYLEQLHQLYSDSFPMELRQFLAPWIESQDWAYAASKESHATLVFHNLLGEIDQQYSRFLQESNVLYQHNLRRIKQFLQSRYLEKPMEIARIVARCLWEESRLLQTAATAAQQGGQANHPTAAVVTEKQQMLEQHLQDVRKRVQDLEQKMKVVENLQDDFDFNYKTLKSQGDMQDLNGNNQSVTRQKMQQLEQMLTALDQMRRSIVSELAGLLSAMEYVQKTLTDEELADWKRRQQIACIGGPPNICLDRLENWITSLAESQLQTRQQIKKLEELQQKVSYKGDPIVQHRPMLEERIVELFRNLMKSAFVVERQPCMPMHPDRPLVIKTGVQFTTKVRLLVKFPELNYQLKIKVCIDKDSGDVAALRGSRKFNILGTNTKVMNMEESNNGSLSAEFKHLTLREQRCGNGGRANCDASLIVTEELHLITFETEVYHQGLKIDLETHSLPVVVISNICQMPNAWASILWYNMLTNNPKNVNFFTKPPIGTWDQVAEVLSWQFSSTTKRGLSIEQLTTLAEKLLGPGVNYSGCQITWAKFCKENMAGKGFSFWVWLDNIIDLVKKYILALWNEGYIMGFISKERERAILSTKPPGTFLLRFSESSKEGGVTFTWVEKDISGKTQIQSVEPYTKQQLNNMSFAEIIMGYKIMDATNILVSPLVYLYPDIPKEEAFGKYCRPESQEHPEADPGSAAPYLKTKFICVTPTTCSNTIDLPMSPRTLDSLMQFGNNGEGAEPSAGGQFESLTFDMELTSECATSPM
Method in brief: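 LNCaP cells stably carrying pSTAT3-TA-luc, in RPMI1640 with 3% DCC-FBS, were treated with compound and then stimulated with 10 ng/mL IL-6 for 24–48 h at 37 °C. Luciferase activity was measured in lysates. A parallel plate measured viability by CellTiter-Glo, with stimulated 0.1% DMSO wells as the positive control.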

Row | SMILES | IC50 (DU-145) [µM] | IC50 (LNCaP) [µM] | IC50 (STAT3) [µM]
1 | CC(C)Oc1cc(OC(F)(F)F)cc(C(C)(C)c2cc(Cl)cc(NC(=O)c3cc4ccc(NS(C)(=O)=O)nc4[nH]3)c2)c1 [Example 100, N-(3-chloro-5-(2-(3-isopropoxy-5-(trifluoromethoxy)phenyl)propan-2-yl)phenyl)-6-(methylsulfonamido)-1H-pyrrolo[2,3-b]pyridine-2-carboxamide] | 0.33 | > 10 | 0.042
2 | COc1cccc(Oc2cc(Cl)cc(NC(=O)c3cc4cc(NS(C)(=O)=O)ccc4s3)c2)c1 [Example 457, N-(3-chloro-5-(3-methoxyphenoxy)phenyl)-5-(methylsulfonamido)benzo[b]thiophene-2-carboxamide] | 0.44 | 0.37 | 0.28
3 | CS(=O)(=O)Nc1ccc2sc(C(=O)Nc3cc(Cl)cc(Oc4cc(F)cc(F)c4)c3)cc2c1 [Example 463, N-(3-chloro-5-(3,5-difluorophenoxy)phenyl)-5-(methylsulfonamido)benzo[b]thiophene-2-carboxamide] | 0.15 | 0.27 | 0.19
4 | CS(=O)(=O)Nc1ccc2sc(C(=O)Nc3cc(Cl)cc(-c4ccc(F)cc4F)n3)cc2c1 [Example 331, N-(4-chloro-6-(2,4-difluorophenyl)pyridin-2-yl)-5-(methylsulfonamido)benzo[b]thiophene-2-carboxamide] | 0.034 | 0.15 | 0.051
5 | CS(=O)(=O)Nc1ccc2sc(C(=O)Nc3cc(Cl)cc(Oc4cccc(C#N)c4)c3)cc2c1 [Example 459, N-(3-chloro-5-(3-cyanophenoxy)phenyl)-5-(methylsulfonamido)benzo[b]thiophene-2-carboxamide] | 0.59 | 0.79 | 0.36
6 | CC(C)Oc1cc(CN2CCN(S(C)(=O)=O)CC2)cc(C(C)(C)c2cc(Cl)cc(NC(=O)c3cc4cc(NS(C)(=O)=O)ccc4s3)c2)c1 [Example 128, N-(3-chloro-5-(2-(3-isopropoxy-5-((4-(methylsulfonyl)piperazin-1-yl)methyl)phenyl)propan-2-yl)phenyl)-5-(methylsulfonamido)benzo[b]thiophene-2-carboxamide] | 0.15 | 0.41 | 0.27
7 | CC(C)Oc1cc(OC(F)(F)F)cc(C(C)(C)c2cc(Cl)cc(NC(=O)c3cc4c(s3)CCN(NS(C)(=O)=O)C4)c2)c1 [Example 104, N-(3-chloro-5-(2-(3-isopropoxy-5-(trifluoromethoxy)phenyl)propan-2-yl)phenyl)-5-(methylsulfonamido)-4,5,6,7-tetrahydrothieno[3,2-c]pyridine-2-carboxamide] | 0.58 | 0.42 | 0.224
8 | CS(=O)(=O)Nc1ccc2sc(C(=O)Nc3cc(Cl)cc(-c4cccs4)c3)cc2c1 [Example 336, N-(3-chloro-5-(thiophen-2-yl)phenyl)-5-(methylsulfonamido)benzo[b]thiophene-2-carboxamide] | 0.065 | 0.21 | 0.13
9 | CC(C)Oc1cc(CN2CCOCC2)cc(C(C)(C)c2cc(F)cc(NC(=O)c3cc4cc(NS(C)(=O)=O)ccc4s3)c2)c1 [Example 137, N-(3-fluoro-5-(2-(3-isopropoxy-5-(morpholinomethyl)phenyl)propan-2-yl)phenyl)-5-(methylsulfonamido)benzo[b]thiophene-2-carboxamide] | 0.1 | 0.4 | 0.22
10 | CC(C)Oc1cc(CN2CCN(c3nnc(C(C)C)o3)CC2)cc(C(C)(C)c2cc(Cl)cc(NC(=O)c3cc4cc(NS(C)(=O)=O)ccc4s3)c2)c1 [Example 135, N-(3-chloro-5-(2-(3-isopropoxy-5-((4-(5-isopropyl-1,3,4-oxadiazol-2-yl)piperazin-1-yl)methyl)phenyl)propan-2-yl)phenyl)-5-(methylsulfonamido)benzo[b]thiophene-2-carboxamide] | 0.3 | 0.85 | 0.14
11 | CC(C)(c1ccc(Cl)cc1)c1cc(Cl)cc(NC(=O)c2cc3cc(NS(=O)(=O)CCO)c(Cl)cc3s2)c1 [Example 188, 6-chloro-N-(3-chloro-5-(2-(4-chlorophenyl)propan-2-yl)phenyl)-5-((2-hydroxyethyl)sulfonamido)benzo[b]thiophene-2-carboxamide] | 0.026 | 0.056 | 0.054
12 | CS(=O)(=O)Nc1ccc2sc(C(=O)Nc3cc(Cl)cc(Oc4ccc(F)c(OC(F)(F)F)c4)c3)cc2c1 [Example 470, N-(3-chloro-5-(4-fluoro-3-(trifluoromethoxy)phenoxy)phenyl)-5-(methylsulfonamido)benzo[b]thiophene-2-carboxamide] | 0.043 | 0.067 | 0.32
13 | COc1cccc(C(C)(C)c2cc(Cl)cc(NC(=O)c3cc4cc(NS(C)(=O)=O)ccc4s3)c2)c1 [Example 106, N-(3-chloro-5-(2-(3-methoxyphenyl)propan-2-yl)phenyl)-5-(methylsulfonamido)benzo[b]thiophene-2-carboxamide] | 0.031 | 0.11 | 0.52
14 | CS(=O)(=O)Nc1ccc2sc(C(=O)Nc3cc(Cl)cc(Oc4cc(Cl)cc(OC(F)(F)F)c4)c3)cc2c1 [Example 467, N-(3-chloro-5-(3-chloro-5-(trifluoromethoxy)phenoxy)phenyl)-5-(methylsulfonamido)benzo[b]thiophene-2-carboxamide] | 0.048 | 0.039 | 0.22
15 | CC(C)Oc1cc(CN2CCCC2)cc(C(C)(C)c2cc(Cl)cc(NC(=O)c3cc4cc(NS(C)(=O)=O)ccc4s3)c2)c1 [Example 125, N-(3-chloro-5-(2-(3-isopropoxy-5-(pyrrolidin-1-ylmethyl)phenyl)propan-2-yl)phenyl)-5-(methylsulfonamido)benzo[b]thiophene-2-carboxamide] | 0.46 | 2.1 | 0.89
16 | C[S+]([O-])c1ccc(C(C)(C)c2cc(Cl)cc(NC(=O)c3cc4cc(NS(C)(=O)=O)ccc4s3)c2)cc1 (stereo not drawn) [Example 160, N-(3-chloro-5-(2-(4-(methylsulfinyl)phenyl)propan-2-yl)phenyl)-5-(methylsulfonamido)benzo[b]thiophene-2-carboxamide] | > 1.1 | > 1.1 | 3.3
17 | CC(C)(c1ccncc1)c1cc(Cl)cc(NC(=O)c2cc3cc(NS(C)(=O)=O)ccc3s2)c1 [Example 191, N-(3-chloro-5-(2-(pyridin-4-yl)propan-2-yl)phenyl)-5-(methylsulfonamido)benzo[b]thiophene-2-carboxamide] | 0.74 | 2.2 | 0.54

These reach a lower IC50 (DU-145). Values come first.

Row | IC50 (DU-145) [µM] | IC50 (LNCaP) [µM] | IC50 (STAT3) [µM] | SMILES
18 | 0.005 | 0.013 | 0.01 | COc1ccc(C(C)(C)c2cc(Cl)cc(NC(=O)c3cc4cc(NS(C)(=O)=O)c(Cl)cc4s3)c2)cc1 [Example 183, 6-chloro-N-(3-chloro-5-(2-(4-methoxyphenyl)propan-2-yl)phenyl)-5-(methylsulfonamido)benzo[b]thiophene-2-carboxamide]
19 | 0.013 | 0.036 | 0.021 | CN(c1cc(Cl)cc(NC(=O)c2cc3cc(NS(C)(=O)=O)c(Cl)cc3s2)c1)c1ccc(F)cc1F [Example 442, 6-chloro-N-(3-chloro-5-((2,4-difluorophenyl)(methyl)amino)phenyl)-5-(methylsulfonamido)benzo[b]thiophene-2-carboxamide]
20 | 0.017 | 0.046 | 0.03 | CC(C)Oc1cc(OC(F)(F)F)cc(C(C)(C)c2cc(Cl)cc(NC(=O)c3cc4cc(NS(=O)(=O)CC5CCOCC5)ccc4s3)c2)c1 [Example 198, N-(3-chloro-5-(2-(3-isopropoxy-5-(trifluoromethoxy)phenyl)propan-2-yl)phenyl)-5-(((tetrahydro-2H-pyran-4-yl)methyl)sulfonamido)benzo[b]thiophene-2-carboxamide]
21 | 0.022 | 0.059 | 0.048 | COc1cc(Cl)cc(Oc2cc(Cl)cc(NC(=O)c3cc4cc(NS(C)(=O)=O)c(Cl)cc4s3)c2)c1 [Example 474, 6-chloro-N-(3-chloro-5-(3-chloro-5-methoxyphenoxy)phenyl)-5-(methylsulfonamido)benzo[b]thiophene-2-carboxamide]
22 | 0.012 | 0.018 | 0.022 | CS(=O)(=O)Nc1cc2cc(C(=O)Nc3cc(Cl)cc(Oc4ccc(F)cc4)c3)sc2cc1Cl [Example 478, 6-chloro-N-(3-chloro-5-(4-fluorophenoxy)phenyl)-5-(methylsulfonamido)benzo[b]thiophene-2-carboxamide]
23 | < 0.005 | < 0.005 | 0.01 | CC(C)c1ccc(C(C)(C)c2cc(Cl)cc(NC(=O)c3cc4cc(NS(C)(=O)=O)c(Cl)cc4s3)c2)s1 [Example 180, 6-chloro-N-(3-chloro-5-(2-(5-isopropylthiophen-2-yl)propan-2-yl)phenyl)-5-(methylsulfonamido)benzo[b]thiophene-2-carboxamide]
24 | 0.016 | 0.075 | 0.011 | CC(C)(c1cc(Cl)cc(NC(=O)c2cc3cc(NS(C)(=O)=O)ccc3s2)c1)c1cc(OC(F)(F)F)ccc1F [Example 62, N-(3-chloro-5-(2-(2-fluoro-5-(trifluoromethoxy)phenyl)propan-2-yl)phenyl)-5-(methylsulfonamido)benzo[b]thiophene-2-carboxamide]
25 | 0.008 | 0.036 | 0.015 | CS(=O)(=O)Nc1cc2cc(C(=O)Nc3cc(Cl)cc(Oc4ccc(F)c(F)c4)c3)sc2cc1Cl [Example 481, 6-chloro-N-(3-chloro-5-(3,4-difluorophenoxy)phenyl)-5-(methylsulfonamido)benzo[b]thiophene-2-carboxamide]
